Laboratory results published in patent publication US8765786B2, “1-substituted indazole derivative” (Dainippon Sumitomo Pharma Co., Ltd., priority 2012, dated 2014).

target: T1, human α7 nAChR (Homo sapiens, UniProt P36544); test: Evaluation of PAM activity with human α7 nACh receptor stably expressing cells (aequorin luminescence, FDSS7000); assay type: cell-based; conditions: result in words; ratio of RLU (Max-Min) to control wells, ACh EC20
T1 construct: expressed in transfected cells; host or cells: GH4C1 cells derived from rat pituitary (ATCC CCL-82.2)
Text: Human α7 nAChR stably expressing cells were generated and cultured. In detail, GH4C1 cells derived from rat pituitary (cat#CCL-82.2, ATCC, USA) were used as a host cell. PcDNA3.1Zeo vector containing a nucleotide sequence encoding a protein GenBank BAC81731 and pcDNA3.1 vector containing human α7 nAChR gene (cat#V790-20, invitrogen, Carlsbad, Calif., USA) were transfected to the cells to give aequorins and human α7 nAChR stably expressing cells respectively. The aequorins and human α7 nAChR stably expressing cells were screened with Zeocin (cat#R25001, invitrogen, Carlsbad, Calif., USA) and Geneticin (cat #10131-027, invitrogen, Carlsbad, Calif., USA) respectively.
The cells were cultured in F-10 Nutrient Mixture (Ham) medium (cat #11550-043, invitrogen, Carlsbad, Calif., USA) containing 2.5% fetal bovine serum (cat #2917354, ICN Biomedicals, Inc, USA), 15% inactivated horse serum (cat #26050-088, invitrogen, Carlsbad, Calif., USA), 1 μg/mL Geneticin, and 5 μg/mL Puromycin (cat #14861-84, invitrogen, Carlsbad, Calif., USA), in a Collagen Type 1-coated dish (cat #4030-010, iwaki, Tokyo, Japan). During the culture, the medium was replaced with fresh medium in every 2 to 3 days, and the cells were treated with TrypLE Express (cat #45604-021, invitrogen, Carlsbad, Calif., USA) to collect them in every 7 days. Thus, the cells were subcultured.
7 Days after subculturing, the cells were treated with TrypLE Express to collect them when they were about 80% confluent. The cells were suspended in a reaction medium containing Hanks (cat #14065-056, invitrogen, Carlsbad, Calif., USA)/20 mmol/L Hepes (cat #15630-080, invitrogen, Carlsbad, Calif., USA), Buffer (pH 7.4), F-10 Nutrient Mixture (Ham), and 0.1 mg/mL Geneticin, and the suspension was seeded in a 384-well plate (cat #781090, Greiner, Germany) at 20000 cells/25 μL per well.
On the next day after seeding, Viviren (cat#E649X, Promega, Madison, Wis., USA) was added to the medium so that the final concentration could be 4 μmol/L (15 μL/well). The plates were centrifuged and then placed in the dark for 4 hours at room temperature.
Each of the test compounds was dissolved in DMSO to prepare each test sample at a concentration of 1000-fold the final concentration. To the solution was added Hanks/20 mM HEPES/0.2% BSA (cat#A3803, Sigma, St. Louis, Mo., USA), and the concentration was adjusted to 6-fold the final concentration.
FDSS7000 (Hamamatsu Photonics) was used to detect the luminescence signal evoked by α7 nAChR stimulation. The cells and a luminescent substrate were put on a plate, and the test sample was added thereto. […] After the addition of ACh, the luminescence signal (the central wavelength: 465 nm) was measured for 138 seconds to calculate RLU (Max-Min). The ratio of the RLU (Max-Min) of the test-compound-containing wells to that of the control wells was defined as PAM activity.

T1 sequence (P36544 23-502): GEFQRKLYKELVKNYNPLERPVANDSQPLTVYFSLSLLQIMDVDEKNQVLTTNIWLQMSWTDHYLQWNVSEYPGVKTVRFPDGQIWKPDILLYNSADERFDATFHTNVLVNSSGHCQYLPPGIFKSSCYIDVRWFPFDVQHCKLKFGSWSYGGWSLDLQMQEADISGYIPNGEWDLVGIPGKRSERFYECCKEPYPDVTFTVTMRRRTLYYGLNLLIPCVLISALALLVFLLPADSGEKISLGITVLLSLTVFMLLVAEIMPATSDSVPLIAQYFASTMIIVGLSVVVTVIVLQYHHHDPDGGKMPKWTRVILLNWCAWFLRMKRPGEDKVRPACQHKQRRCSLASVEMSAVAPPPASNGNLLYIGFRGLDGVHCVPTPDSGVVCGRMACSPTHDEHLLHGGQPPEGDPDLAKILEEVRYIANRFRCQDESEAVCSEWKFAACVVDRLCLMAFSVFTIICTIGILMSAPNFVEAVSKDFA

Row | Structure (SMILES) | PAM activity for α7 nAChR
1 | CCOc1ccc2c(cnn2C2CCN(C(=O)NC3CCCC3)CC2)c1 [Example 17] | stronger PAM activity than others
2 | COCC1CCC(NC(=O)N2CCC(n3ncc4cc(C)ccc43)CC2)CC1 (stereo not shown) [Example 220] | stronger PAM activity than others
3 | CCOc1ccc2c(cnn2C2CCN(C(=O)NC3CCCCC3)CC2)c1 [Example 18, N-cyclohexyl-4-(5-ethoxy-1H-indazol-1-yl)piperidine-1-carboxamide] | stronger PAM activity than others
4 | Cc1ccc2c(cnn2C2CCN(C(=O)NC3CCCCC3)CC2)c1 [Example 8, N-cyclohexyl-4-(5-methyl-1H-indazol-1-yl)piperidine-1-carboxamide] | stronger PAM activity than others
5 | CCc1ccc2c(cnn2C2CCN(C(=O)NC3CCC(F)(F)CC3)CC2)c1 [Example 23] | stronger PAM activity than others

same assay, conditions: test compound 10 μmol/L; ACh added at EC20; ratio of RLU (Max-Min) of test wells to control wells

Row | Structure (SMILES) | α7PAM (%) @ 10 μmol/L
6 | CCc1c(OC)ccc2c1cnn2C1CCN(C(=O)N[C@H]2CC[C@H](OC)CC2)CC1 [Example 288] | 218%
7 | CCOc1ccc2c(cnn2C2CCN(C(=O)NC3CCCC3)CC2)c1 [Example 17] | 2469%
8 | [2H]C([2H])([2H])O[C@H]1CC[C@H](NC(=O)N2CCC(n3ncc4c(OC)c(CC)ccc43)CC2)CC1 [Example 318] | 1084%
9 | O=C(NC1CCCOC1)N1CCC(n2ncc3cc(C4CC4)ccc32)CC1 (stereo not shown) [Example 177] | 712%
10 | CCOc1nn(C2CCN(C(=O)NC3CCC(F)(F)CC3)CC2)c2ccc(CC)cc12 [Example 61] | 1092%
11 | CCCc1ccc2c(cnn2C2CCN(C(=O)C3CCOCC3)CC2)c1 [Example 108] | 207%
12 | COc1ccc2c(cnn2C2CCN(C(=O)N[C@H]3CC[C@H](OC)CC3)CC2)c1OC [Example 306] | 147%
13 | CCc1ccc2c(cnn2C2CCN(C(=O)NC3CCC(OC)CC3)CC2)c1 (stereo not shown) [Example 92] | 356%
14 | COCc1ccc2c(cnn2C2CCN(C(=O)NC3CCC(F)(F)CC3)CC2)c1 [Example 54] | 657%
15 | COc1c(C(F)(F)F)ccc2c1cnn2C1CCN(C(=O)NC2CCC(OC)CC2)CC1 (stereo not shown) [Example 317] | 360%
16 | COc1ccc2c(c1)c(C1CCOCC1)nn2C1CCN(C(=O)N[C@H]2CC[C@H](OC)CC2)CC1 [Example 262] | 348%
17 | CO[C@H]1CC[C@H](NC(=O)N2CCC(n3ncc4c(C)c(C)ccc43)CC2)CC1 [Example 225] | 480%
18 | O=C(NC1CCC(F)(F)CC1)N1CCC(n2ncc3cc(OC(F)F)ccc32)CC1 [Example 290] | 1173%
19 | CO[C@H]1CC[C@H](NC(=O)N2CCC(n3ncc4cc(-c5ccc(F)cc5)ccc43)CC2)CC1 [Example 155] | 210%
20 | O=C(NC1CC(F)(F)C1)N1CCC(n2ncc3cc(C4CC4)ccc32)CC1 [Example 217] | 517%
21 | COCC1CCC(NC(=O)N2CCC(n3ncc4cc(C)ccc43)CC2)CC1 (stereo not shown) [Example 220] | 2160%
22 | [2H]C([2H])([2H])O[C@H]1CC[C@H](NC(=O)N2CCC(n3ncc4cc(C)ccc43)CC2)CC1 [Example 295, 4-(5-methyl-1H-indazol-1-yl)-N-{trans-4-[(^2H3)methoxy]cyclohexyl}piperidine-1-carboxamide] | 1143%
23 | CCc1cccc2c1cnn2C1CCN(C(=O)N[C@H]2CC[C@@H](OC)CC2)CC1 [Example 158] | 292%
24 | CCOc1ccc2c(cnn2C2CCN(C(=O)N[C@H]3CC[C@H](OC)CC3)CC2)c1C [Example 282] | 215%
25 | [2H]C([2H])([2H])c1ccc2c(cnn2C2CCN(C(=O)NC3CCCC3)CC2)c1 [Example 315] | 825%
26 | CCOc1ccc2c(cnn2C2CCN(C(=O)NC3CCOCC3)CC2)c1 [Example 19] | 306%

Row | Structure (SMILES) | α7PAM (%) @ 10 μmol/L
27 | COc1nn(C2CCN(C(=O)NC3CCC(F)(F)CC3)CC2)c2ccc(C)cc12 [Example 270] | 364%
28 | [2H]C([2H])([2H])O[C@H]1CC[C@H](NC(=O)N2CCC(n3ncc4cc(C([2H])([2H])[2H])ccc43)CC2)CC1 [Example 308] | 1021%
29 | Cc1ccc2c(cnn2C2CCN(C(=O)NC3CCC(OCC(F)(F)F)CC3)CC2)c1 (stereo not shown) [Example 83] | 420%
30 | COCC1CCC(NC(=O)N2CCC(n3ncc4cc(OC(C)C)ccc43)CC2)CC1 (stereo not shown) [Example 235] | 611%
31 | O=C(NC1CCC1)N1CCC(n2ncc3cc(OC(F)(F)F)ccc32)CC1 [Example 299] | 302%
32 | COCc1nn(C2CCN(C(=O)NC3CCC(OC)CC3)CC2)c2ccc(C)cc12 (stereo not shown) [Example 69] | 242%
33 | CCOc1ccc2c(cnn2C2CCN(C(=O)c3ccc(F)cc3)CC2)c1 [Example 112] | 265%
34 | [2H]C([2H])([2H])Oc1ccc2c(cnn2C2CCN(C(=O)NC3CCCCC3)CC2)c1 [Example 324] | 1352%
35 | COc1c(Br)ccc2c1cnn2C1CCN(C(=O)N[C@H]2CC[C@H](OC)CC2)CC1 [Example 285] | 293%
36 | CCc1ccc2c(c1)c(OC(C)C)nn2C1CCN(C(=O)NC2CCCC2)CC1 [Example 58] | 577%
37 | O=C(NC1CCC1)N1CCC(n2ncc3cc(C4CC4)ccc32)CC1 [Example 185] | 494%
38 | CCc1ccc2c(cnn2[C@H]2CC[C@@H](NC(=O)C3CCCC3)CC2)c1 [Example 123] | 1445%
39 | CCc1ccc2c(cnn2C2CCN(C(=O)NC3CCOCC3)CC2)c1 [Example 24] | 745%
40 | CCOc1ccc2c(cnn2C2CCN(C(=O)NC3CCC(COC)CC3)CC2)c1 (stereo not shown) [Example 234] | 824%
41 | COCC(C)c1ccc2c(cnn2C2CCN(C(=O)NC3CCC(F)(F)CC3)CC2)c1 (stereo not shown) [Example 252] | 364%
42 | COc1ccc2c(cnn2C2CCN(C(=O)NC3CCC(F)(F)CC3)CC2)c1C1CC1 [Example 280] | 299%
43 | COCc1c(C2CC2)ccc2c1cnn2C1CCN(C(=O)NC2CCC(F)(F)CC2)CC1 [Example 215] | 851%
44 | CCc1ccc2c(cnn2[C@H]2CC[C@@H](NC(=O)[C@H]3CC[C@H](OC)CC3)CC2)c1 [Example 122] | 410%
45 | CCOCc1cccc2c1cnn2C1CCN(C(=O)NC2CCCCC2)CC1 [Example 167] | 434%
46 | [2H]C([2H])([2H])Oc1nn(C2CCN(C(=O)NC3CCC(F)(F)CC3)CC2)c2ccc(C(F)(F)F)cc12 [Example 310] | 134%
47 | O=C(C1CCC(F)(F)CC1)N1CCC(n2ncc3ccccc32)CC1 [Example 137] | 328%

same assay, conditions: test compound 10 μmol/L; ACh added at EC20; ratio of RLU (Max-Min) of test wells to control wells; read-out: α7PAM (%) @ 10 μmol/L

Row | Structure (SMILES) | activity at 10 µM
48 | O=C(NC1CCC(F)(F)CC1)N1CCC(n2ncc3cc(F)ccc32)CC1 [Example 28, N-(4,4-difluorocyclohexyl)-4-(5-fluoro-1H-indazol-1-yl)piperidine-1-carboxamide] | 340%
49 | Cc1ccc2c(cnn2C2CCN(C(=O)N[C@@H]3CCCCC3(F)F)CC2)c1 [Example 78, (R)—N-(2,2-difluorocyclohexyl)-4-(5-methyl-1H-indazol-1-yl)piperidine-1-carboxamide] | 987%
50 | CC(C)Cc1ccc2c(cnn2C2CCN(C(=O)C3CCOCC3)CC2)c1 [Example 103, (4-(5-isobutyl-1H-indazol-1-yl)piperidin-1-yl)(tetrahydro-2H-pyran-4-yl)methanone] | 281%
51 | Cc1ccc2c(c1)c(C1CCOCC1)nn2C1CCN(C(=O)NC2CCC(F)(F)CC2)CC1 [Example 52, N-(4,4-difluorocyclohexyl)-4-(5-methyl-3-(tetrahydro-2H-pyran-4-yl)-1H-indazol-1-yl)piperidine-1-carboxamide] | 366%
52 | Cc1ccc2c(cnn2C2CCN(C(=O)N[C@@H]3CCCC3(F)F)CC2)c1 [Example 81, (R) —N-(2,2-difluorocyclopentyl)-4-(5-methyl-1H-indazol-1-yl)piperidine-1-carboxamide] | 819%
